Data taken from patent US20230012368A1 (Hoffmann-La Roche Inc., priority 2018, published 2023).
Structures can show the parent of a compound that is named as a salt.

system: Acinetobacter baumannii ATCC 17978; test: Antimicrobial susceptibility testing: 90% growth inhibitory concentration (IC90) determination; assay type: cell-based; details: 90% growth inhibitory concentration; Acinetobacter baumannii ATCC17978; Iso-Sensitest broth, OD 600 nm over 16h; read-out: ATCC17978 IC90
In short: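 Compounds serially twofold diluted (e.g. 50 to 0.097 μM final) in Iso-Sensitest broth, inoculated at ~5×10^(5) CFU/ml, incubated at 35±2° C. OD600 read every 20 minutes over 16h. IC90 taken as concentration inhibiting 90% of growth during logarithmic phase.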

With `Cc1cc(Nc2nccn3c(-c4ccc(OC(F)F)cc4)cnc23)ccc1C(=O)N(C)CCC1CCNCC1` [Example 81, 4-((3-(4-(difluoromethoxy)phenyl)imidazo[1,2-a]pyrazin-8-yl)amino)-N,2-dimethyl-N-(2-(piperidin-4-yl)ethyl)benzamide] the IC90 was 200 nM.

same assay, conditions: Acinetobacter baumannii, ATCC17978, 16 h, 90% growth inhibitory concentration; Acinetobacter baumannii ATCC17978; Iso-Sensitest broth, OD 600 nm over 16h; read-out: ATCC17978 IC90

Going from `COc1ccc(-c2cnc3c(Nc4ccc(C(=O)N[C@@H](C)CN)c(Cl)c4)nccn23)c(F)c1F` [Example 505, #N!-[(2#S!)-1-aminopropan-2-yl]-2-chloro-4-[[3-(2,3-difluoro-4-methoxyphenyl)imidazo[1,2-a]pyrazin-8-yl]amino]benzamide;dihydro-chloride] to `COc1ccc(-c2cnc3c(Nc4ccc(C(=O)NCCCCCN)c(Cl)c4)nccn23)c(F)c1F` [Example 492, N-(5-aminopentyl)-2-chloro-4-((3-(2,3-difluoro-4-methoxyphenyl)imidazo[1,2-a]pyrazin-8-yl)amino)benzamide hydrochloride], the IC90 falls from 270 nM to 44 nM (6.1-fold).

Compared with `O=C(NCc1ccccn1)c1ccc(Nc2nccn3c(-c4ccc(OC(F)F)cc4)cnc23)cc1Cl` [Example 111, 2-chloro-4-((3-(4-(difluoromethoxy)phenyl)imidazo[1,2-a]pyrazin-8-yl)amino)-N-(pyridin-2-ylmethyl)benzamide], `CNC(=O)c1ccc(Nc2nccn3c(-c4ccc(OC(F)F)cc4)cnc23)cc1I` [Example 91, 4-((3-(4-(difluoromethoxy)phenyl)imidazo[1,2-a]pyrazin-8-yl)amino)-2-iodo-N-methylbenzamide] is 8.1-fold lower in IC90: 2100 nM for the first, 260 nM for the second.

First: COc1ccc(-c2cnc3c(Nc4ccc(C(=O)NCCCN5CCS(=O)(=O)CC5)c(C)c4)nccn23)cc1F [Example 36, N-[3-(1,1-dioxo-1,4-thiazinan-4-yl)propyl]-4-[[3-(3-fluoro-4-methoxy-phenyl)imidazo[1,2-a]pyrazin-8-yl]amino]-2-methyl-benzamide; 2,2,2-trifluoroacetic acid]
Second: COc1ccc(-c2cnc3c(Nc4ccc(C(=O)NCC5CNCCO5)c(Cl)c4)nccn23)cc1F (stereo not drawn) [Example 233, 2-chloro-4-[[3-(3-fluoro-4-methoxyphenyl)imidazo[1,2-a]pyrazin-8-yl]amino]-N-(morpholin-2-ylmethyl)benzamide; hydrochlo-ride]
The IC90 of the first is 2.8-fold lower: 460 nM for the first, 1300 nM for the second.

First: CCc1cc(Nc2nccn3c(-c4ccc(OC)c(F)c4F)cnc23)ccc1C(=O)NC[C@H](C)NC(=O)[C@@H](N)CCCNC(=N)N [Example 123, N-[(2S)-2-[[(2S)-2-amino-5-guanidino-pentanoyl]amino]propyl]-4-[[3-(2,3-difluoro-4-methoxy-phenyl)imidazo[1,2-a]pyrazin-8-yl]amino]-2-ethyl-benzamide formate]
Second: CCc1cc(Nc2nccn3c(-c4ccc(OC)c(F)c4F)cnc23)ccc1C(=O)N[C@H](C)CCNC(=O)[C@@H](N)CCCNC(=N)N [Example 375, N-[(2R)-4-[[(2S)-2-amino-5-carbamimidamidopentanoyl]amino]butan-2-yl]-4-[[3-(2,3-difluoro-4-methoxyphenyl)imidazo[1,2-a]pyrazin-8-yl]amino]-2-ethylbenzamide]
The IC90 of the first is 2.2-fold higher: 410 nM for the first, 190 nM for the second.

`COc1ccc(-c2cnc3c(Nc4ccc5c(c4)CCN(CCCO)C5=O)nccn23)c(F)c1F` [Example 327, 6-[[3-(2,3-difluoro-4-methoxyphenyl)imidazo[1,2-a]pyrazin-8-yl]amino]-2-(3-hydroxypropyl)-3,4-dihydroisoquinolin-1-one] and `COc1ccc(-c2cnc3c(Nc4ccc5c(c4)CCN(CCCN)C5=O)nccn23)c(F)c1F` [Example 164, 2-(3-aminopropyl)-6-[[3-(2,3-difluoro-4-methoxy-phenyl)imidazo[1,2-a]pyrazin-s-yl]amino]-3,4-dihydroisoquinolin-1-one] are the same in IC90: 290 nM for the first, 290 nM for the second.

`CCc1cc(Nc2nccn3c(-c4ccc(OC)c(F)c4F)cnc23)ccc1C(=O)N[C@H](C)CNC(=O)[C@@H](N)CCCCN` [Example 465, N-[(1R)-2-[[(2S)-2,6-diaminohexanoyl]amino]-1-methyl-ethyl]-4-[[3-(2,3-difluoro-4-methoxy-phenyl)imidazo[1,2-a]pyrazin-8-yl]amino]-2-ethyl-benzamide] and `CCc1cc(Nc2nccn3c(-c4ccc(OC)c(F)c4F)cnc23)ccc1C(=O)NCCNC(=O)NCCCN` [Example 335, N-[2-(3-aminopropylcarbamoylamino)ethyl]-4-[[3-(2,3-difluoro-4-methoxyphenyl)imidazo[1,2-a]pyrazin-8-yl]amino]-2-ethylbenzamide] are within 1.5-fold of each other in IC90: 300 nM for the first, 430 nM for the second.

First: Cc1cc(Nc2nccn3c(-c4ccc(Cl)c(F)c4F)cnc23)ccc1C(=O)NCCC1CCNCC1 [Example 193, 4-[[3-(4-chloro-2,3-difluorophenyl)imidazo[1,2-a]pyrazin-8-yl]amino]-2-methyl-N-(2-piperidin-4-ylethyl)benzamide;hydrochlo-ride]
Second: Cc1cc(Nc2nccn3c(-c4ccc(Cl)c(F)c4F)cnc23)ccc1C(=O)NCCCN [Example 214, N-(3-aminopropyl)-4-[[3-(4-chloro-2,3-difluorophenyl)imidazo[1,2-a]pyrazin-8-yl]amino]-2-methylbenzamide;hydrochlo-ride]
The IC90 of the first is 2-fold lower: 350 nM for the first, 690 nM for the second.

Compared with `N#CCOc1ccc(-c2cnc3c(Nc4ccc(C(=O)NCCCCN)c(Cl)c4)nccn23)c(F)c1F` [Example 519, N-(4-aminobutyl)-2-chloro-4-((3-(4-(cyanomethoxy)-2,3-difluorophenyl)imidazo[1,2-a]pyrazin-8-yl)amino)benzamide], `N#CCOc1ccc(-c2cnc3c(Nc4ccc(C(=O)NCCCCCCCN)c(Cl)c4)nccn23)c(F)c1F` [Example 521, N-(7-aminoheptyl)-2-chloro-4-((3-(4-(cyanomethoxy)-2,3-difluorophenyl)imidazo[1,2-a]pyrazin-8-yl)amino)benzamide] is 2-fold lower in IC90: 47 nM for the first, 24 nM for the second.

Going from `CCc1cc(Nc2nccn3c(-c4ccc(OCC#N)c(F)c4F)cnc23)ccc1C(=O)NCCNC(=O)[C@H](N)CCCNC(=N)N` [Example 148, N-[2-[[(2R)-2-amino-5-guanidino-pentanoyl]amino]ethyl]-4-[[3-[4-(cyanomethoxy)-2,3-difluoro-phenyl]imidazo[1,2-a]pyrazin-8-yl]amino]-2-ethyl-benzamide formate] to `CCc1cc(Nc2nccn3c(-c4ccc(Cl)cc4Cl)cnc23)ccc1C(=O)NCCNC(=O)[C@H](N)CCCNC(=N)N` [Example 351, N-[2-[[(2R)-2-amino-5-carbamimidamidopentanoyl]amino]ethyl]-4-[[3-(2,4-dichlorophenyl)imidazo[1,2-a]pyrazin-8-yl]amino]-2-ethylbenzamide;formic acid], the IC90 rises from 100 nM to 1300 nM (13-fold).

First: Cc1cc(Nc2nccn3c(-c4ccc(OC(F)F)cc4)cnc23)ccc1C(=O)N(C)CCC1CCN(S(C)(=O)=O)CC1 [Example 234, 4-[[3-[4-(difluoromethoxy)phenyl]im-idazo[1,2-a]pyrazin-8-yl]amino]-N,2-dimethyl-N-[2-(1-methylsulfonylpiperidin-4-yl)ethyl]benzamide]
Second: Cc1cc(Nc2nccn3c(-c4ccc(OC(F)F)cc4)cnc23)ccc1C(=O)NCCN1CCOCC1=O [Example 247, 4-[[3-[4-(difluoromethoxy)phenyl]im-dazo[1,2-a]pyrazin-8-yl]amino]-2-methyl-N-[2-(3-oxomorpholin-4-yl)ethyl]benzamide]
The IC90 of the first is 1.8-fold lower: 1300 nM for the first, 2400 nM for the second.

`N#CCOc1ccc(-c2cnc3c(Nc4ccc(C(=O)NCCCN5CCNCC5)c(Cl)c4)nccn23)c(F)c1F` [Example 77, 2-chloro-4-((3-(4-(cyanomethoxy)-2,3-difluorophenyl)imidazo [1,2-a]pyrazin-8-yl)amino)-N-(3-(piperazin-1-yl)propyl)benzamide] and `Cc1cc(Nc2nccn3c(-c4ccc(OCC#N)c(F)c4F)cnc23)ccc1C(=O)NCCNC(=O)[C@@H]1C[C@@H](O)CN1` [Example 365, (2S,4R)-N-[2-[[4-[[3-[4-(cyanomethoxy)-2,3-difluorophenyl]imidazo[1,2-a]pyrazin-8-yl]amino]-2-methylbenzoyl]amino]ethyl]-4-hydroxypyrrolidine-2-carboxamide] are within 1.5-fold of each other in IC90: 100 nM for the first, 90 nM for the second.

First: COc1ccc(-c2cnc3c(Nc4ccc(C(=O)N[C@@H](C)CNC(=N)C(C)C)c(C)c4)nccn23)c(F)c1F [Example 499, 4-[[3-(2,3-difluoro-4-methoxyphenyl)imidazo[1,2-a]pyrazin-8-yl]amino]-2-methyl-#N!-[(2#S!)-1-(2-methylpropanimidoylamino)propan-2-yl]benzamide]
Second: CCc1cc(Nc2nccn3c(-c4ccc(OC)c(F)c4F)cnc23)ccc1C(=O)NCCNC(=O)[C@@H]1C[C@@H](O)CN1 [Example 370, (2S,4R)-N-[2-[[4-[[3-(2,3-difluoro-4-methoxyphenyl)imidazo[1,2-a]pyrazin-8-yl]amino]-2-ethylbenzoyl]amino]ethyl]-4-hydroxypyrrolidine-2-carboxamide]
The IC90 of the first is 2.1-fold higher: 300 nM for the first, 140 nM for the second.

Going from `CCc1cc(Nc2nccn3c(-c4ccc(OC)c(F)c4F)cnc23)ccc1C(=O)NCCCNC(=O)[C@H](CCCNC(=N)N)NC(=O)[C@@H](N)CCC(=O)O` [Example 156, (S)-4-amino-5-(((S)-1-((3-(4-((3-(2,3-difluoro-4-methoxyphenyl)imidazo[1,2-a]pyrazin-8-yl)amino)-2-ethylbenzamido)propyl)amino)-5-guanidino-1-oxopentan-2-yl)amino)-5-oxopentanoic acid trihydrochloride] to `CCc1cc(Nc2nccn3c(-c4ccc(OC)c(F)c4F)cnc23)ccc1C(=O)NCCCCCC(=O)N1CCN[C@H](CO)C1` [Example 162, 4-[[3-(2,3-difluoro-4-methoxy-phenyl)imidazo[1,2-a]pyrazin-8-yl]amino]-2-ethyl-N-[6-[(3S)-3-(hydroxymethyl)piperazin-1-yl]-6-oxo-hexyl]benzamide], the IC90 falls from 340 nM to 80 nM (4.2-fold).
